Source: publication PMC3852661, “Structural basis of SUFU–GLI interaction in human Hedgehog signalling regulation” (Acta Crystallographica Section D: Biological Crystallography, 2013)

Assays:
Format in all cases: binding, human
[1] = tested on: MBP-SUFU-FL, mutation of Glu376; test: Microscale thermophoresis, MBP-SUFU-FL mutated at Glu376; conditions: mutation of Glu376 in MBP-SUFU-FL, data not shown
Procedure: (§1) A 5-FAM-labelled peptide (FAM-GLI1p) comprising residues 115–131 of GLI1 (Supplementary Table S1b) was synthesized by Pepceuticals Ltd. A titration series of each recombinant protein was prepared by serial 1:1 dilutions in MST buffer (50 mM Tris–HCl pH 7.6, 150 mM NaCl, 10 mM MgCl2, 0.05% Tween-20) and mixed in a 1:1 ratio with FAM-GLI1p to give final concentrations of 50 nM FAM-GLI1p with MBP-SUFU constructs in the ranges 14.2–29 070 and 54–110 500 nM. Reactions were aspirated into glass capillaries and the thermophoretic movement of FAM-GLI1p was monitored using a Monolith NT.115 instrument (NanoTemper Technologies; Wienken et al., 2010[▶]), with a laser on for 30 s and off for 5 s and a laser power/voltage of 20% for MBP-SUFU-FL and the MBP-SUFU-FL mutants, 40% for MBP-SUFU-Δ and 80% for MBP-SUFU-SH. Fluorescence was measured before laser heating (F Cold) and after 30 s of laser-on time (F Hot). The normalized fluorescence F Hot/F Cold reflects the concentration ratio of labelled molecules. F Hot/F Cold was plotted directly and multiplied by a factor of […], yielding a relative change in fluorescence per thousand. K d was calculated from three independent thermophoresis measurements using NanoTemper software (NanoTemper Technologies). […]

MBP-SUFU-SH = test: SYPRO Orange initial fluorescence upon peptide addition, MBP-SUFU-SH; conditions: excitation 470 nm, emission 570 nm, pH 7.0
MBP-SUFU-SH, sequence (Q9UMX1 32-278 limits assumed): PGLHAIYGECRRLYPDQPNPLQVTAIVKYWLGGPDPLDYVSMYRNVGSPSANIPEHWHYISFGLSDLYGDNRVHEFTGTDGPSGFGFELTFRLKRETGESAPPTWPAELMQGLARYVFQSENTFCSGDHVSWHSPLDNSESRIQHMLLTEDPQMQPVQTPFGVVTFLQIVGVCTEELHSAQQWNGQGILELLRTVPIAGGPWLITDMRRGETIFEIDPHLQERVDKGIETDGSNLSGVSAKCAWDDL
MBP-SUFU-SH, sequence (Q9UMX1 361-483 limits assumed): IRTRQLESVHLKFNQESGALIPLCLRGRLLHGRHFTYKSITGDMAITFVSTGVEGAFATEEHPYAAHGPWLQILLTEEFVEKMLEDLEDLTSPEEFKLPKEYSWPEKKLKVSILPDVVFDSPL
Procedure: Recombinant MBP-SUFU proteins were diluted to 2.6 µM in 50 mM Na HEPES pH 7.0, 50 mM NaCl, 5 mM β-mercaptoethanol; the peptides GLI1p and GLI1p-SH (Supplementary Table S1b), synthesized by Dr W. Mawby (University of Bristol), were dissolved in the same buffer. Proteins were spun at 14 000g for 20 min at 4°C before adding SYPRO Orange (Molecular Probes) to a final concentration of 6×. Reaction volumes of 25 µl were prepared in 96-well PCR plates with 2.2 µM protein/SYPRO Orange solution and, where applicable, 44 µM peptide. Plates were sealed with optical tape, heated from 20 to 90°C in 12 s 0.2°C steps in an iCycler and fluorescence was detected using an excitation wavelength of 470 nm and an emission wavelength of 570 nm.
Recombinant MBP-SUFU constructs were diluted to 2.5 µM in 50 mM Na HEPES pH 7.0, 50 mM NaCl, 5 mM β-mercaptoethanol and spun at 14 000g for 20 min at 4°C before the addition of SYPRO Orange to a final 5× concentration of dye. The fluorescence of 100 µl samples was measured in black 96-well plates (Nunc) using excitation at λ = 470 nm and emission at λ = 570 nm. GLI1p or GLI1p-SH peptides prepared in the same buffer as above were added in the given ratios and mixed before a second reading was taken. Readings post-peptide addition were divided by the corresponding pre-peptide addition measurements to obtain normalized results. […]

[2] = tested on: MBP-SUFU-FL, mutation of Tyr147; test: Microscale thermophoresis, MBP-SUFU-FL mutated at Tyr147; conditions: mutation of Tyr147 in MBP-SUFU-FL, data not shown
Procedure: as §1

## GLI1p: human GLI1-derived peptide; residues 115–131, containing the highly conserved SYGH motif (TSPGGSYGHLSIGTMSP)
[1]
  detectable binding: abolished detectable binding
MBP-SUFU-SH
  initial fluorescence upon addition of GLI1p: no such effect
[2]
  detectable binding: abolished detectable binding
